This test deals with hepatocytes. The test can be described thus: RNA-seq of hepatocytes treated with Phase III failure compounds. The conditions noted are these: for significant modulation of expression of disease genes: q≤0.05, genes in the value or listed in the block. As for the experimental part:
RNA-seq was performed to determine the effects of the compounds on hepatocytes.
Significance was determined by the criteria of FPKM≥0.5, a log 2(fold-change)≥1, and a […].

As for `COc1nc(C)cnc1NS(=O)(=O)c1cccnc1-c1ccc(-c2nnco2)cc1` [Zibotentan], the “Number (#) of genes having significantly changed expression” value (RNA-seq, Phase III failure compounds, hepatocytes, significance: FPKM≥0.5, log 2(fold-change)≥1, q-value≥0.05 (so in the source)) is 505. The “significant modulation of expression of disease genes” value (RNA-seq, hepatocytes) was “significantly (q≤0.05) modulate expression”. For the setting “gene B2M, hepatocytes”, the “B2M expression, RNA-seq result” value is −0.49. Further, the “B9D2 expression, RNA-seq result” value (gene B9D2, hepatocytes) is recorded as −0.43. Besides, where the note is “gene BAAT, hepatocytes”, the “BAAT expression, RNA-seq result” value was 0.17. Under “gene BBOX1, hepatocytes”, the “BBOX1 expression, RNA-seq result” value is given as −0.45. Moreover, for the setting “gene BBS10, hepatocytes”, the “BBS10 expression, RNA-seq result” value worked out at 0.26. Also, the “BCHE expression, RNA-seq result” value (gene BCHE, hepatocytes) was found to be 0.02. Moreover, where the note is “gene BCKDHB, hepatocytes”, the “BCKDHB expression, RNA-seq result” value is listed as −0.16. The “BCKDK expression, RNA-seq result” value (gene BCKDK, hepatocytes) is −0.21. For the same molecule, under “gene BCO1, hepatocytes”, the “BCO1 expression, RNA-seq result” value is recorded as −0.38. For the same molecule, the “BCR expression, RNA-seq result” value (gene BCR, hepatocytes) stood at 0.14. For the same molecule, under “gene BLNK, hepatocytes”, the “BLNK expression, RNA-seq result” value was determined as 0.09. In addition, the “BLOC1S3 expression, RNA-seq result” value (gene BLOC1S3, hepatocytes) was 0.15. Also, the “BMPR1A expression, RNA-seq result” value (gene BMPR1A, hepatocytes) was determined as 0.51. In addition, the “BRAF expression, RNA-seq result” value (gene BRAF, hepatocytes) was found to be 0.82. The “BSCL2 expression, RNA-seq result” value (gene BSCL2, hepatocytes) is −3.20. Besides, where the note is “gene BTD, hepatocytes”, the “BTD expression, RNA-seq result” value is 0.19. For the same molecule, the “C4A expression, RNA-seq result” value (gene C4A, hepatocytes) is 0.20. Also, the “C9 expression, RNA-seq result” value (gene C9, hepatocytes) is −0.13. In addition, under “gene C10orf10, hepatocytes”, the “C10orf10 expression, RNA-seq result” value is given as −0.49. Besides, the “C10orf11 expression, RNA-seq result” value (gene C10orf11, hepatocytes) was −0.62. Besides, the “C15orf41 expression, RNA-seq result” value (gene C15orf41, hepatocytes) came to 0.50. In addition, the “CA2 expression, RNA-seq result” value (gene CA2, hepatocytes) was −0.44. For the setting “gene CA5A, hepatocytes”, the “CA5A expression, RNA-seq result” value was 0.23. Also, the “CA12 expression, RNA-seq result” value (gene CA12, hepatocytes) is reported as 0.06. Moreover, the “CAV1 expression, RNA-seq result” value (gene CAV1, hepatocytes) turned out to be 0.15. The “CCND1 expression, RNA-seq result” value (gene CCND1, hepatocytes) came out at 0.25. In addition, the “CD46 expression, RNA-seq result” value (gene CD46, hepatocytes) is given as 0.05. The “CD81 expression, RNA-seq result” value (gene CD81, hepatocytes) was −0.76. The “CD320 expression, RNA-seq result” value (gene CD320, hepatocytes) is reported as −0.95. The “CDAN1 expression, RNA-seq result” value (gene CDAN1, hepatocytes) was determined as 0.10. In addition, the “CDH1 expression, RNA-seq result” value (gene CDH1, hepatocytes) stood at 0.50. Moreover, the “CEP19 expression, RNA-seq result” value (gene CEP19, hepatocytes) is −0.43. Under “gene CEP83, hepatocytes”, the “CEP83 expression, RNA-seq result” value worked out at 0.33. For the setting “gene CEP164, hepatocytes”, the “CEP164 expression, RNA-seq result” value was found to be 0.05. Further, the “CEP290 expression, RNA-seq result” value (gene CEP290, hepatocytes) is 0.01. For the same molecule, the “CFB expression, RNA-seq result” value (gene CFB, hepatocytes) is given as −0.28. In addition, the “CFHR2 expression, RNA-seq result” value (gene CFHR2, hepatocytes) is recorded as −0.93. Besides, where the note is “gene CHRM3, hepatocytes”, the “CHRM3 expression, RNA-seq result” value came out at 0.20. Moreover, under “gene CIDEC, hepatocytes”, the “CIDEC expression, RNA-seq result” value is given as −0.40. Moreover, the “CLDN1 expression, RNA-seq result” value (gene CLDN1, hepatocytes) is on record as 0.16. Besides, the “COG1 expression, RNA-seq result” value (gene COG1, hepatocytes) is given as 0.25.
`CN[C@@]1(C)[C@@H]2CC[C@@H](C2)C1(C)C.Cl` [TC-5214 (R-Mecamylamine hydrochloride), R-Mecamylamine hydrochloride]: under “RNA-seq of Table 36, FPKM≥0.5, log 2(fold-change)≥1, q-value≤0.05”, the “significant changes in gene expression” value is on record as “not observed to cause any significant changes in gene expression”. Further, under “RNA-seq, hepatocytes”, the “significant modulation of expression of disease genes” value is “significantly (q≤0.05) modulate expression of GCSH” and the “log 2 fold change in expression of GCSH” value is −1.31.

The values above are taken from US20210254056A1, “IDENTIFICATION AND TARGETED MODULATION OF GENE SIGNALING NETWORKS” (CAMP4 THERAPEUTICS CORPORATION, priority 2017, published 2021).
